Measurements reported in ChEMBL document CHEMBL3301562, “MMV Box screening against Plasmodium falciparum protein kinases and aminoacyl tRNA synthetases”.

Legend:
Assay type in all cases: functional
[1] = biological target: T1, Proline--tRNA ligase (Plasmodium falciparum (isolate 3D7), UniProt Q8I5R7); assay: MMV: ProRS recombinant Plasmodium falciparum Prolyl-tRNA-synthetase, assay with yeast tRNA, ATP, and proline and 3 uM MMV malaria box compound, assay read out with kinase glo as % inhibition.
T1 sequence (Q8I5R7 whole entry): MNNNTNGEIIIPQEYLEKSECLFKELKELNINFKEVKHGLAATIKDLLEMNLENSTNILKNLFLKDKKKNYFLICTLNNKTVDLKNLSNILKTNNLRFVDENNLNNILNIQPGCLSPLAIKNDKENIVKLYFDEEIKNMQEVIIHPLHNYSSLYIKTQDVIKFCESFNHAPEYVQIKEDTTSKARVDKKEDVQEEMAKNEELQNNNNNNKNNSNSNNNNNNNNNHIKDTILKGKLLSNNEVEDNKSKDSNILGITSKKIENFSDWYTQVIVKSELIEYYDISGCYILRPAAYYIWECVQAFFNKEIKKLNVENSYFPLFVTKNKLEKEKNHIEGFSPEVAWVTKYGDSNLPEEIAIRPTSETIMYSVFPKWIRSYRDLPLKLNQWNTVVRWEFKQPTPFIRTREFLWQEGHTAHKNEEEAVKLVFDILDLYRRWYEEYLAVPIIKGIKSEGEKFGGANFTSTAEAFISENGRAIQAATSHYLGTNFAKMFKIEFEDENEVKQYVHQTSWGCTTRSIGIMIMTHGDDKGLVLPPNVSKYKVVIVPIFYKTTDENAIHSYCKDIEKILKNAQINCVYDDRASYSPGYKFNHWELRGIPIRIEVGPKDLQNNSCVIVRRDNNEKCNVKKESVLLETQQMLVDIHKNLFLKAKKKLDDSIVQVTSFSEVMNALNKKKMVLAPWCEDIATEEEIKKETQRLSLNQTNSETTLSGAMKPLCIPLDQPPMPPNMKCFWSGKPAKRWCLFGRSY

[2] = biological target: Calcium-dependent protein kinase 1 (Plasmodium falciparum, UniProt P62344); assay: MMV: CDPK1 Protein kinase inhibition assay using recombinant PfCDPK1, syntide 2 peptide substrate, ATP and KinaseGlo to measure % inhibition at 1 uM MMV box compound.
[3] = biological target: T2, Mitogen-activated protein kinase (Plasmodium falciparum, UniProt Q25917); assay: Final concentrations were 1 uM ATP, 0.5 mM DTT, 1 mM MgCl2, 0.5 mg/mL BSA, and 10 ug/ml MAP2 in a buffer of 50 mM HEPES (pH 7.0). 0.5 mg/mL histone III-S served as the substrate (13); 100 uM AMP-PNP, an ATP analog, was used as a control inhibitor. Incubation time was 4 hours.
T2 sequence (Q25917 whole entry): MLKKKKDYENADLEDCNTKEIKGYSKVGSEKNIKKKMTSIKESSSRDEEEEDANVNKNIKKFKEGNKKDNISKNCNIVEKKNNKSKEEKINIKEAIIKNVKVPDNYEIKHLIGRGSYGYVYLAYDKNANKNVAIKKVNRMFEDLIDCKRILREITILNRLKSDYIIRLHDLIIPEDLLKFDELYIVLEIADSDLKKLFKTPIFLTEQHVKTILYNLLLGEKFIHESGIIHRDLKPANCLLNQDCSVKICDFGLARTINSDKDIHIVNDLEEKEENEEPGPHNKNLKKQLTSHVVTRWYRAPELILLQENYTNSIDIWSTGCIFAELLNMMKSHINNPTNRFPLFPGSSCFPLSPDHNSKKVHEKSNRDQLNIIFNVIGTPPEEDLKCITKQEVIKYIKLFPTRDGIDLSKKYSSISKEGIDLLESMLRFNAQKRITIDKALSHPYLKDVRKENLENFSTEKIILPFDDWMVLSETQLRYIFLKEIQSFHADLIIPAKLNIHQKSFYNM

[4] = biological target: T3, Putative uncharacterized protein pk7 (Plasmodium falciparum, UniProt O96214); assay: Final concentrations were 1 uM ATP, 2 mM DTT, 20 mM MgCl2, 2 mM MnCl2, 0.01% BSA, and 6 ug/ml PK7, in a buffer of 20 mM Tris-HCl (pH 7.5). The enzyme itself was the only substrate present (since autophosphorylation occurs); 100 uM 1NA-PP1 was used as a control inhibitor. Incubation time was 3 hours.
T3 sequence (O96214 whole entry): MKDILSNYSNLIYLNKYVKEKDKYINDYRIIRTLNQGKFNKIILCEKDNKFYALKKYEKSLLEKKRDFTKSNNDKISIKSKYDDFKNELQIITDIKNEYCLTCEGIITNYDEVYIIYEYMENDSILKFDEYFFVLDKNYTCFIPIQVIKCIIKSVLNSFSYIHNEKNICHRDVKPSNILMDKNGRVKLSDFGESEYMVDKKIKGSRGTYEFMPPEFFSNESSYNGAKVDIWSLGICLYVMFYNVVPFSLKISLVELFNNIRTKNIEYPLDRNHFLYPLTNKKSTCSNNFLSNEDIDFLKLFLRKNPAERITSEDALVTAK

[5] = biological target: Lysine--tRNA ligase (Plasmodium falciparum (isolate 3D7), UniProt Q8IDJ8); assay: MMV: KRS recombinant Plasmodium falciparum Lysyl-tRNA-synthetase, assay with yeast tRNA, ATP, and lysine and 3 uM MMV malaria box compound, assay read out with kinase glo as % inhibition.
[6] = biological target: T4, Calcium-dependent protein kinase 4 (Plasmodium falciparum (isolate 3D7), UniProt Q8IBS5); assay: MMV: CDPK4 Protein kinase inhibition assay using recombinant PfCDPK4, syntide2 peptide substrate, ATP and KinaseGlo to measure % inhibition at 1 uM MMV box compound.
T4 sequence (Q8IBS5 whole entry): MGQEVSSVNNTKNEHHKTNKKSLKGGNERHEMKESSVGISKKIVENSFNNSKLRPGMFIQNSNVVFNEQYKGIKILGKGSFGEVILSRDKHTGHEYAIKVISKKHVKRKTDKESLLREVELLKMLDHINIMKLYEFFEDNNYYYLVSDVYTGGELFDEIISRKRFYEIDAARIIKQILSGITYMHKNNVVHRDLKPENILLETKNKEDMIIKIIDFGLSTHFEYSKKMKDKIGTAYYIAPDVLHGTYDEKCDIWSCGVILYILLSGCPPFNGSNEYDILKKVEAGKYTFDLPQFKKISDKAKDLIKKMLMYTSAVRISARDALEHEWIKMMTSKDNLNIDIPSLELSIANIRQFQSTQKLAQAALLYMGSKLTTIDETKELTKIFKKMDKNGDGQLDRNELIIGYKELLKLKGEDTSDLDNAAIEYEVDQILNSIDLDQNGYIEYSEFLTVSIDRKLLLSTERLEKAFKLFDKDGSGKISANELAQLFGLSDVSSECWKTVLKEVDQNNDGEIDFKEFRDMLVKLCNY

[7] = biological target: T5, Cdk-related protein kinase 6 (Plasmodium falciparum, UniProt O77239); assay: Final concentrations were 1.5 uM ATP, 5 mM MnCl2, and 15 ug/ml PK6 in a buffer of 100 mM Tris-HCl (pH 7.5). 50 ug/mL MBP was provided as the substrate; 10 uM staurosporine was used as a control inhibitor. Incubation time was 3 hours and 40 minutes.The catalytic activity of each kinase was considered proportional to ATP consumed, as determined from measurements of residual [ATP] with the luciferase-based reagent Kinase-Glo (Promega) following incubation. Luminescence (proportional to residual [ATP]) was measured on the plate readers FLx800 (BioTek Instruments, Winooski, VT, USA) and MicroBeta2.
T5 sequence (O77239 whole entry): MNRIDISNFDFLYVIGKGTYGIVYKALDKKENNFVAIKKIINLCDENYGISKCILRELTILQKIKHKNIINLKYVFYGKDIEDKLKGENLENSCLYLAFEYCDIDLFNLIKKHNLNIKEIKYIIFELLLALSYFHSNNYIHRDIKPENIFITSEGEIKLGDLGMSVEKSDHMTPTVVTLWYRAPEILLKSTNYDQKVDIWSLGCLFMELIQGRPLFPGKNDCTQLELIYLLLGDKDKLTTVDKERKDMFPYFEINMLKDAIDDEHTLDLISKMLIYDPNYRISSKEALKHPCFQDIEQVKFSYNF

Sequence of Calcium-dependent protein kinase 1 (P62344 whole entry): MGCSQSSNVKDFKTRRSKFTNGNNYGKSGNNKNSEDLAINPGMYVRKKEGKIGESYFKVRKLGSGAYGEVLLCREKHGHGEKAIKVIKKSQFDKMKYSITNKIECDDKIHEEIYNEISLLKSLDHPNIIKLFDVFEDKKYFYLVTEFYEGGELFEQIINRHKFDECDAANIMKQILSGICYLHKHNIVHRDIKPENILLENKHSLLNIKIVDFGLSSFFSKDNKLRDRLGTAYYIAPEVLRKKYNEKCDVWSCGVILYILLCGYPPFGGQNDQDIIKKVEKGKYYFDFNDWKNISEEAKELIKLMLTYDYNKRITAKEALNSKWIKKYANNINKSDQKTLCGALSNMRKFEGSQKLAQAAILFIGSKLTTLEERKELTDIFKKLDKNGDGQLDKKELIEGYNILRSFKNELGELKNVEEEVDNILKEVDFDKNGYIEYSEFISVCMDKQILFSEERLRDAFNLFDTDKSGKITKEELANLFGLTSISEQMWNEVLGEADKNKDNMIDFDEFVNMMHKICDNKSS
Sequence of Lysine--tRNA ligase (Q8IDJ8 whole entry): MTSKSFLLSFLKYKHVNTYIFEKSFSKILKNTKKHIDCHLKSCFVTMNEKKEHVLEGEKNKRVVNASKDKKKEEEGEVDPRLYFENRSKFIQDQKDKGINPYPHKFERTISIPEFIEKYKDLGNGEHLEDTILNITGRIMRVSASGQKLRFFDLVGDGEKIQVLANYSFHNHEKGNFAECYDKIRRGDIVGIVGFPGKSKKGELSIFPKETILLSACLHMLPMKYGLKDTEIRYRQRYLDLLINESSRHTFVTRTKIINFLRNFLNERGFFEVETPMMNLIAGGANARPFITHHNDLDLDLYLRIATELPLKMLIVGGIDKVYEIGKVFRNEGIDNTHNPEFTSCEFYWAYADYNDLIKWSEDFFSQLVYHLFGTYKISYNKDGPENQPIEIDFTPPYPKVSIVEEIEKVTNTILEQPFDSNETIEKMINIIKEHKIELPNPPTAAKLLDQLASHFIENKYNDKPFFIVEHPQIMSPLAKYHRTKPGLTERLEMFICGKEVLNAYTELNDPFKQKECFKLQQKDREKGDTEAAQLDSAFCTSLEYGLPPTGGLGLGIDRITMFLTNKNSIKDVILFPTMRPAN

SMILES	IC50 [1]	IC50 [2]	IC50 [3]	IC50 [4]	IC50 [5]	IC50 [6]	IC50 [7]
Cc1ccc(-c2cc(C(=O)Nc3ccc(S(=O)(=O)N4CCCCC4)cc3)[nH]n2)c(O)c1	> 2500 nM	> 1000 nM	> 1000 nM	> 1000 nM	> 2500 nM	> 1000 nM	> 1000 nM
COc1ccc(N2CCN(C(CNC(=O)C3CCCCC3)c3ccc4c(c3)OCO4)CC2)cc1 (configuration not stated)	> 2500 nM	> 1000 nM	> 1000 nM	> 1000 nM	> 2500 nM	> 1000 nM	> 1000 nM
Cc1[nH]c(-c2ccc(F)cc2)cc1C(=O)NC1CCN(Cc2ccccc2)CC1	> 2500 nM	> 1000 nM	> 1000 nM	> 1000 nM	> 2500 nM	> 1000 nM	> 1000 nM
O=C(NC1CCCC1)c1ccc(N2CCC(NCc3cccc(C(F)(F)F)c3)CC2)cc1	> 2500 nM	> 1000 nM	> 1000 nM	> 1000 nM	> 2500 nM	> 1000 nM	> 1000 nM
CCOc1cc(Br)c(C(C)NC(=O)c2cccc(OC)c2)cc1OCC (configuration not stated)	> 2500 nM	> 1000 nM	> 1000 nM	> 1000 nM	> 2500 nM	> 1000 nM	> 1000 nM
CCN(CC)CCn1c(=N)n(CC(O)c2ccc(Cl)c(Cl)c2)c2ccccc21 (configuration not stated)	> 2500 nM	> 1000 nM	> 1000 nM	> 1000 nM	> 2500 nM	> 1000 nM	> 1000 nM
CCOc1cc(Cl)c(C(C)NC(=O)c2cccc(OC)c2)cc1OCC (configuration not stated)	> 2500 nM	> 1000 nM	> 1000 nM	> 1000 nM	> 2500 nM	> 1000 nM	> 1000 nM
Cc1ccc(CSCc2ccc(C(=O)NC3CC3)o2)cc1	> 2500 nM	> 1000 nM	> 1000 nM	> 1000 nM	> 2500 nM	> 1000 nM	> 1000 nM
CC(=O)NCCc1nc2ccccc2n1Cc1ccc(C(C)C)cc1	> 2500 nM	> 1000 nM	> 1000 nM	> 1000 nM	> 2500 nM	> 1000 nM	> 1000 nM
CCCC(c1nnnn1C1CCCCC1)N1CCN(C(=O)c2ccco2)CC1 (configuration not stated)	> 2500 nM	> 1000 nM	> 1000 nM	> 1000 nM	> 2500 nM	> 1000 nM	> 1000 nM
CC(C)(C)C(=O)Nc1ccc(C(=O)Nc2cccc(-c3nc4ccccc4[nH]3)c2)cc1	> 2500 nM	> 1000 nM	> 1000 nM	> 1000 nM	> 2500 nM	> 1000 nM	> 1000 nM
Cc1ccc(CN2CCC(C(=O)Nc3ccc(-c4cc5ccccc5[nH]4)cc3)CC2)o1	> 2500 nM	> 1000 nM	> 1000 nM	> 1000 nM	> 2500 nM	> 1000 nM	> 1000 nM
Cc1cc(C)c2nc(N3CCC(C(=O)NCCCN4CCC(N5CCCCC5)CC4)CC3)sc2c1	> 2500 nM	> 1000 nM	> 1000 nM	> 1000 nM	> 2500 nM	> 1000 nM	> 1000 nM
CC(C)(C)c1ccc(C(=O)Nc2nc3ccccc3s2)cc1	> 2500 nM	> 1000 nM	> 1000 nM	> 1000 nM	> 2500 nM	> 1000 nM	> 1000 nM
COc1ccccc1CNC(=O)C1c2ccccc2C(=O)N(CC(C)C)C1c1cccs1 (configuration not stated)	> 2500 nM	> 1000 nM	> 1000 nM	> 1000 nM	> 2500 nM	> 1000 nM	> 1000 nM
COc1ccc(C2N(C)c3ccccc3N2C)cc1	> 2500 nM	> 1000 nM	> 1000 nM	> 1000 nM	> 2500 nM	> 1000 nM	> 1000 nM
CC(C)OCc1cc(CN2CCN(c3cccc(Cl)c3)CC2)c(O)c2ncccc12	> 2500 nM	> 1000 nM	> 1000 nM	> 1000 nM	> 2500 nM	> 1000 nM	> 1000 nM
O=C(Nc1ccc(F)c(Cl)c1)Nc1ccc(Cl)c(Cl)c1	> 2500 nM	> 1000 nM	> 1000 nM	> 1000 nM	> 2500 nM	> 1000 nM	> 1000 nM
CCOc1c(Cl)cc(CNC(C)C(O)c2ccccc2)cc1OC (configuration not stated)	> 2500 nM	> 1000 nM	> 1000 nM	> 1000 nM	> 2500 nM	> 1000 nM	> 1000 nM
CCCN(CCC)CCCNC(=O)c1cc2c(-c3ccc(OC)c(OC)c3)nn(C)c2s1	> 2500 nM	> 1000 nM	> 1000 nM	> 1000 nM	> 2500 nM	> 1000 nM	> 1000 nM
O=C(NCC1Cc2cccc(-c3ccncc3)c2O1)c1csc2c1CCCC2 (configuration not stated)	> 2500 nM	> 1000 nM	> 1000 nM	> 1000 nM	> 2500 nM	> 1000 nM	> 1000 nM
